# Measured values: patent US4282363A, “1-Nitro-2-(2-alkynylamino)-2-[(2-pyridylmethylthio)-ethylamino]ethylene derivatives” (Bristol-Myers Company, priority 1980, dated 1981)
# Where two headings read alike, the source gives them in different places.
# Columns and labels:
# [1] = target: T1, histamine H2 -receptor (Cavia porcellus, UniProt P47747); assay: Histamine H2-receptor antagonism, isolated guinea pig right atria assay (displacement of histamine concentration-response curve of atrial rate); parameters: species or system guinea pig (male Hartley); settings: for Histamine ED50 With 95% Confidence Limits (after test compound): histamine ED50 in presence of test compound 3 × 10^-5 M, 30 minute incubation; for Concentration-Response Curve Displacement Factor: test compound 3 × 10^-5 M, displacement of histamine curve to the right
# T1 construct: The spontaneously beating right atrium was dissected free from other tissues; from tissue; host or cells: isolated, spontaneously beating right atrium of male Hartley guinea pigs
# Procedure: Subsequent investigations by Hughes and Coret, Proc. Soc. […] Black et al., Agents and Actions, 3, 133 (1973) and Brimblecombe et al., Fed. […] The present comparative studies were carried out using a modification of the procedure reported by Reinhardt et al., Agents and Actions, 4, 217 (1974).
# Male Hartley strain guinea pigs (350-450 gm.) were sacrificed by a blow on the head. The heart was excised and placed in a Petri dish of oxygenated (95% O2, 5% CO2) modified Krebs solution (g./liter: NaCl 6.6, KCl 0.35, MgSO4.7H2 O 0.295, KH2 PO4 0.162, CaCl2 0.238, NaHCO3 2.1 and dextrose 2.09). The spontaneously beating right atrium was dissected free from other tissues and a silk thread (4-0) attached to each end. The atrium was suspended in a 20 ml. muscle chamber containing oxygenated modified Krebs solution maintained at 32° C. Atrial contractions were recorded isometrically be means of a Grass FT 0.03 force displacement transducer and recordings of contractile force and rate were made with Beckman RP Dynograph.
# A resting tension of 1 g. was applied to the atrium and it was allowed to equilibrate for 1 hour.
# Concentration-response curve displacement factors were calculated as follows: [formula] […] [formula]
# [2] = system: H2 -receptors; settings: compared with other H2 antagonists; cited from earlier work
# [3] = clinical use; cited from earlier work
# [4] = system: peptic ulcer disease; settings: cited from earlier work
# [5] = 200-300 mg. tablets, multi daily doses; cited from earlier work
# [6] = system: histamine H2 -receptors; settings: isolated right atria, cited from earlier work
# [7] = system: gastric secretion; settings: animals; cited from earlier work
# [8] = system: gastric secretion; settings: man, cited from earlier work
# T1 sequence (P47747 whole entry): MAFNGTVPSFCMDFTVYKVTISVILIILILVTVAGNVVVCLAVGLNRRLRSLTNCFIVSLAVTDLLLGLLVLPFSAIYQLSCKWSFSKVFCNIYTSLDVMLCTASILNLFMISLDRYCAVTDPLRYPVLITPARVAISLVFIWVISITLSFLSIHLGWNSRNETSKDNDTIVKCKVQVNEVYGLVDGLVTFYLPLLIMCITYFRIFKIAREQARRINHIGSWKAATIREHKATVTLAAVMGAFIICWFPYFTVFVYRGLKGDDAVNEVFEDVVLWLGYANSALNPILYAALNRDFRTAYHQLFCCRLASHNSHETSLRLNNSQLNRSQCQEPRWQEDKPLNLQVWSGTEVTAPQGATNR
smiles,measurement,setting,value
CNC(=NC#N)NCCSCc1[nH]cnc1C [Cimetidine],Histamine ED50 With 95% Confidence Limits (after test compound),[1],4.80 µg/mL
same,"H2 antagonist potency, comparison in words",[2],as effective an H2 antagonist as metiamide
same,toxicity (agranulocytosis),[3],without producing agranulocytosis
same,therapeutic effectiveness in peptic ulcer disease,[4]; clinical evaluation,effective therapeutic agent in the treatment of peptic ulcer disease
same,half-life,[5],relatively short
"NCCc1c[nH]cn1 [Histamine, histamine]",histamine concentration giving maximal response,"[1]; final molar bath concentration, increase in atrial rate",30 µM
same,effect on contractile rate,[6]; agonist,concentration-related increases in the contractile rate
CNC(=S)NCCCCc1c[nH]cn1 [Burimamide],inhibition of gastric secretion,[7],inhibits gastric secretion
same,inhibition of gastric secretion,[8],inhibits gastric secretion
same,clinical effectiveness as H2 -receptor antagonist,[4]; in vivo,first clinically effective H2 -receptor antagonist
same,antagonism of H2-receptors,[6],competitive antagonist
"C#CCNC(=NCCSCc1ncccc1Cl)NC#N [BL-6083, N-Cyano-N'-(2-propyn-1-yl)-N""-{2-[(3-chloro-2-pyridyl)-methylthio]ethyl}guanidine]",Histamine ED50 With 95% Confidence Limits (after test compound),[1],57.92 µg/mL
same,Activity Ratio Relative to Cimetidine,"[1]; ratio of displacement factors, cimetidine = 1.0, times more potent/active than cimetidine",8.19
same,Concentration-Response Curve Displacement Factor,[1],206.86
"C#CCNC(=C[N+](=O)[O-])NCCSCc1ncccc1Cl [BL-6075, 1-Nitro-2-(2-propynlamino)-2-{2-[(3-chloro-2-pyridyl)-methylthio]ethylamino}ethylene]",Histamine ED50 With 95% Confidence Limits (after test compound),[1],20.97 µg/mL
same,Concentration-Response Curve Displacement Factor,[1],52.77
CNC(=S)NCCSCc1[nH]cnc1C [Metiamide],oral activity,[8]; oral,orally active in man
same,"H2 antagonist potency, comparison in words",[2],more potent than burimamide
same,toxicity (agranulocytosis),[3],toxicity (agranulocytosis)
